According to patent publication US20190374627A1, “TARGET PEPTIDES FOR CANCER THERAPY AND DIAGNOSTICS” (priority 2016, published 2019):
Square brackets hold non-standard residues; d marks the D form. Ends that are not written are not given here. Met(O) = CS(=O)CC[C@H](N)C(=O)O; pS = N[C@@H](COP(=O)(O)O)C(=O)O

Experiments:
[1] = tested on: expanded lymphocyte cultures from deceased donor livers, cirrhotic livers and HCC; assay: ICS for MHC-I-pP reactivity of liver-derived lymphocyte cultures after phosphopeptide-specific expansion; format: cell-based, human; details: for ppCTL response, Deceased Donor Liver Do 2 / ppCTL response, Deceased Donor Liver Do 3 / ppCTL response, Deceased Donor Liver Do 4 / ppCTL response, Deceased Donor Liver Do 6 / ppCTL response, End-stage Liver Cirrhosis IHL 11 / ppCTL response, End-stage Liver Cirrhosis IHL 12 / ppCTL response, End-stage Liver Cirrhosis IHL 13 / ppCTL response, End-stage Liver Cirrhosis IHL 15 / ppCTL response, HCC Distal HCC 1 / ppCTL response, HCC Tumor HCC 1 / ppCTL response, HCC Distal HCC 4 / ppCTL response, HCC Distal HCC 9 / ppCTL response, HCC Tumor HCC 9 / ppCTL response, HCC Distal HCC 12: pP-specifically expanded culture; for ppCTL response, HCC Distal HCC 1: HCC 1 Distal; for ppCTL response, HCC Tumor HCC 1: HCC 1 Tumor; for ppCTL response, HCC Distal HCC 4: HCC 4 Distal; for ppCTL response, HCC Distal HCC 9: HCC 9 Distal; for ppCTL response, HCC Tumor HCC 9: HCC 9 Tumor; for ppCTL response, HCC Distal HCC 12: HCC 12 Distal
[2] = tested on: unexpanded lymphocyte cultures (CD8^+ T cells); assay: ICS for MHC-I-pP reactivity of lymphocyte cultures without expansion (Table 23, No Expansion); details: HH6
CD8^+ T cells (PBMCs) = assay: Intracellular cytokine staining (ICS) of PBMCs after 7 days of stimulation with MHC-I-pP (healthy donors, HH patients); format: cell-based, human; details: for Reactive CD8^+ T cell population, HH2: HH patient HH2; for Reactive CD8^+ T cell population, HH3: HH patient HH3; for Reactive CD8^+ T cell population, HH6: HH patient HH6; for Reactive CD8^+ T cell population, HH8: HH patient HH8; for Reactive CD8^+ T cell population, HD1: Healthy donor HD1; for Reactive CD8^+ T cell population, HD4: Healthy donor HD4; for Reactive CD8^+ T cell population, HD5: Healthy donor HD5; for Reactive CD8^+ T cell population, HH11: HH patient HH11
How it was run: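 PBMCs or liver lymphocytes from HLA-A*0201-positive healthy donors and hereditary hemochromatosis patients were stimulated for 7 days with HLA-A*0201-restricted phosphopeptides and no added cytokines. After exclusion of doublets and dead cells with a fixable viability dye, CD3^+CD8^+ cells were analysed by intracellular staining for IFN-γ and TNF-α, plus CD107a where needed.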

[3] = tested on: expanded TIL / IHL cultures; assay: ICS for MHC-I-pP reactivity of liver-derived lymphocyte cultures after unspecific rapid expansion protocol (REP); format: cell-based, human

Row | Substance | Reactive CD8^+ T cells, pP-specific Expansion, Do2 [1] | Reactive CD8^+ T cells, pP-specific Expansion, Do4 [1] | Reactive CD8^+ T cells, pP-specific Expansion, HH6 [1] | ppCTL response, Deceased Donor Liver Do 2 [1] | ppCTL response, Deceased Donor Liver Do 3 [1] | ppCTL response, Deceased Donor Liver Do 4 [1] | ppCTL response, Deceased Donor Liver Do 6 [1] | ppCTL response, End-stage Liver Cirrhosis IHL 11 [1] | ppCTL response, End-stage Liver Cirrhosis IHL 12 [1] | ppCTL response, End-stage Liver Cirrhosis IHL 13 [1] | ppCTL response, End-stage Liver Cirrhosis IHL 15 [1] | ppCTL response, HCC Distal HCC 1 [1] | ppCTL response, HCC Tumor HCC 1 [1] | ppCTL response, HCC Distal HCC 4 [1] | ppCTL response, HCC Distal HCC 9 [1] | ppCTL response, HCC Tumor HCC 9 [1] | ppCTL response, HCC Distal HCC 12 [1] | Reactive CD8^+ T cells, No Expansion, HH6 [2] | Reactive CD8^+ T cell population, HH2 (CD8^+ T cells (PBMCs)) | Reactive CD8^+ T cell population, HH3 (CD8^+ T cells (PBMCs)) | other results
1 | PmVTLsLNL (P[Met(O)]VTL[pS]LNL; listed as Homo sapiens) | 2 (2.5-5.0% reactive CD8^-+ T cells) | 1 (0.25-2.5% reactive CD8^-+ T cells) | 0 (<0.25% reactive CD8^-+ T cells) | 2 (2.5-5.0% reactive CD8-+ T cells) | 0 (<0.25% reactive CD8-+ T cells) | 2 (2.5-5.0% reactive CD8-+ T cells) | 1 (0.25-2.5% reactive CD8-+ T cells) | 0 (<0.25% reactive CD8-+ T cells) | 0 (<0.25% reactive CD8-+ T cells) | 0 (<0.25% reactive CD8-+ T cells) | 0 (<0.25% reactive CD8-+ T cells) | 0 (<0.25% reactive CD8-+ T cells) | 0 (<0.25% reactive CD8-+ T cells) | 0 (<0.25% reactive CD8-+ T cells) | 0 (<0.25% reactive CD8-+ T cells) | 0 (<0.25% reactive CD8-+ T cells) | 0 (<0.25% reactive CD8-+ T cells) | 0 (<0.25% reactive CD8^-+ T cells) | 0 (<0.25% reactive CD8^-+ T cells) | 0 (<0.25% reactive CD8^-+ T cells) | Reactive CD8^+ T cell population, HH6 (CD8^+ T cells (PBMCs)): 0 (<0.25% reactive CD8^-+ T cells); Reactive CD8^+ T cell population, HH8 (CD8^+ T cells (PBMCs)): 0 (<0.25% reactive CD8^-+ T cells); Reactive CD8^+ T cell population, HD1 (CD8^+ T cells (PBMCs)): 0 (<0.25% reactive CD8^-+ T cells); Reactive CD8^+ T cell population, HD4 (CD8^+ T cells (PBMCs)): 0 (<0.25% reactive CD8^-+ T cells); Reactive CD8^+ T cell population, HD5 (CD8^+ T cells (PBMCs)): 0 (<0.25% reactive CD8^-+ T cells); Reactive CD8^+ T cells, Non-specific Expansion, Do2 [3]: 0 (<0.25% reactive CD8^-+ T cells); Reactive CD8^+ T cells, Non-specific Expansion, Do4 [3]: 1 (0.25-2.5% reactive CD8^-+ T cells); Reactive CD8^+ T cells, Non-specific Expansion, HH6 [3]: 0 (<0.25% reactive CD8^-+ T cells)
2 | RTFsPTYGL: SYNM phosphopeptide, HLA-A*0201 (RTF[pS]PTYGL; listed as Homo sapiens) | 0 (<0.25% reactive CD8^-+ T cells) | 0 (<0.25% reactive CD8^-+ T cells) | 3 (5-7.5% reactive CD8^-+ T cells) | 0 (<0.25% reactive CD8-+ T cells) | 0 (<0.25% reactive CD8-+ T cells) | 0 (<0.25% reactive CD8-+ T cells) | 0 (<0.25% reactive CD8-+ T cells) | 0 (<0.25% reactive CD8-+ T cells) | 0 (<0.25% reactive CD8-+ T cells) | 0 (<0.25% reactive CD8-+ T cells) | 1 (0.25-2.5% reactive CD8-+ T cells) | 0 (<0.25% reactive CD8-+ T cells) | 0 (<0.25% reactive CD8-+ T cells) | 0 (<0.25% reactive CD8-+ T cells) | 0 (<0.25% reactive CD8-+ T cells) | 0 (<0.25% reactive CD8-+ T cells) | 0 (<0.25% reactive CD8-+ T cells) | 1 (0.25-2.5% reactive CD8^-+ T cells) | 0 (<0.25% reactive CD8^-+ T cells) | 0 (<0.25% reactive CD8^-+ T cells) | Reactive CD8^+ T cell population, HH6 (CD8^+ T cells (PBMCs)): 0 (<0.25% reactive CD8^-+ T cells); Reactive CD8^+ T cell population, HH8 (CD8^+ T cells (PBMCs)): 0 (<0.25% reactive CD8^-+ T cells); Reactive CD8^+ T cell population, HH11 (CD8^+ T cells (PBMCs)): 0 (<0.25% reactive CD8^-+ T cells); Reactive CD8^+ T cell population, HD1 (CD8^+ T cells (PBMCs)): 0 (<0.25% reactive CD8^-+ T cells); Reactive CD8^+ T cell population, HD4 (CD8^+ T cells (PBMCs)): 0 (<0.25% reactive CD8^-+ T cells); Reactive CD8^+ T cell population, HD5 (CD8^+ T cells (PBMCs)): 0 (<0.25% reactive CD8^-+ T cells); Reactive CD8^+ T cells, Non-specific Expansion, Do2 [3]: 0 (<0.25% reactive CD8^-+ T cells); Reactive CD8^+ T cells, Non-specific Expansion, Do4 [3]: 0 (<0.25% reactive CD8^-+ T cells); Reactive CD8^+ T cells, Non-specific Expansion, HH6 [3]: 0 (<0.25% reactive CD8^-+ T cells)
3 | KAFsPVRSV: ID2 phosphopeptide, HLA-A*0201 (KAF[pS]PVRSV; listed as Homo sapiens) | 0 (<0.25% reactive CD8^-+ T cells) | 0 (<0.25% reactive CD8^-+ T cells) | 0 (<0.25% reactive CD8^-+ T cells) | 1 (0.25-2.5% reactive CD8-+ T cells) | 0 (<0.25% reactive CD8-+ T cells) | 0 (<0.25% reactive CD8-+ T cells) | 0 (<0.25% reactive CD8-+ T cells) | 0 (<0.25% reactive CD8-+ T cells) | 0 (<0.25% reactive CD8-+ T cells) | 0 (<0.25% reactive CD8-+ T cells) | 0 (<0.25% reactive CD8-+ T cells) | 0 (<0.25% reactive CD8-+ T cells) | 0 (<0.25% reactive CD8-+ T cells) | 0 (<0.25% reactive CD8-+ T cells) | 0 (<0.25% reactive CD8-+ T cells) | 0 (<0.25% reactive CD8-+ T cells) | 0 (<0.25% reactive CD8-+ T cells) | 0 (<0.25% reactive CD8^-+ T cells) | 0 (<0.25% reactive CD8^-+ T cells) | 0 (<0.25% reactive CD8^-+ T cells) | Reactive CD8^+ T cell population, HH6 (CD8^+ T cells (PBMCs)): 0 (<0.25% reactive CD8^-+ T cells); Reactive CD8^+ T cell population, HH8 (CD8^+ T cells (PBMCs)): 0 (<0.25% reactive CD8^-+ T cells); Reactive CD8^+ T cell population, HH11 (CD8^+ T cells (PBMCs)): 0 (<0.25% reactive CD8^-+ T cells); Reactive CD8^+ T cell population, HD1 (CD8^+ T cells (PBMCs)): 0 (<0.25% reactive CD8^-+ T cells); Reactive CD8^+ T cell population, HD4 (CD8^+ T cells (PBMCs)): 0 (<0.25% reactive CD8^-+ T cells); Reactive CD8^+ T cell population, HD5 (CD8^+ T cells (PBMCs)): 0 (<0.25% reactive CD8^-+ T cells); Reactive CD8^+ T cells, Non-specific Expansion, Do2 [3]: 0 (<0.25% reactive CD8^-+ T cells); Reactive CD8^+ T cells, Non-specific Expansion, Do4 [3]: 0 (<0.25% reactive CD8^-+ T cells); Reactive CD8^+ T cells, Non-specific Expansion, HH6 [3]: 0 (<0.25% reactive CD8^-+ T cells)
